Each structure is given as a SMILES string.

The nature of the series: Human HepG2 cell viability assay in 384 well format. The format is toxicity, cell-based. The arrangement: dose 125 nL, time 70.5 hour; concentration not given beside the values. As to conditions: HepG2 cells, read-out: Inhibition.
`c1cc(-c2cn[nH]c2)ccc1CN1CCCCC1`: the cytotoxicity at 70.5 h was found to be 13.1%.

With `CC(C)=CCC1(CO)CCCN(Cc2nccs2)C1` (stereo unspecified), the cytotoxicity at 70.5 h is -9.67%. The same measure for `CCCSCC(=O)N1CCCC(c2nccn2Cc2ccncc2)C1` (stereo unspecified): 25.6%. Turning to `COC(=O)c1cc(OCC2CCC2)cc(C(=O)N[C@@H](C)CO)c1`, the cytotoxicity at 70.5 h is -22.2%.

On to `CCN(CC1CCCN(CCc2cccc(OC)c2)C1)C(=O)CN(C)C` (stereo unspecified), for which the cytotoxicity at 70.5 h was -0.489%. The same measure for `Clc1cccc(-c2cccc(N3CCC(NC4CCOCC4)CC3)c2)c1`: 5.92%; for `CCc1nnc(CNC(=O)CCN2CCN(c3cccc(C)c3)CC2)s1`: -4.25%.

As for `Cc1ccc(CSc2nc(N)cc(NCC(=O)N3CCNCC3)n2)cc1`, the cytotoxicity at 70.5 h was -4.01%.

On to `O=C(COc1ccc2cccnc2c1)N1CCN[C@H]2CS(=O)(=O)C[C@H]21`, for which the cytotoxicity at 70.5 h was 18.5%. In the case of `CN(CCO)c1nc(-c2ccccn2)nc2c1CCNC2`, the cytotoxicity at 70.5 h was -0.45%. With `Cc1ccccc1-n1c(C)cc(=O)[nH]c1=O` the figure was 26.3%.

Consider `CSCc1noc(CN2CC(Cc3ccccc3)CC2=O)n1` (stereo unspecified), for which the cytotoxicity at 70.5 h is -13%.

Turning to `CC(C)CN1CC2(CCN(C(=O)c3cn4cccnc4n3)CC2)CC1=O`, the cytotoxicity at 70.5 h is -17.9%. With `Cc1ccc(CN2CCN(C(=O)c3ccc(CO)cc3)C(C)C2=O)cc1` (stereo unspecified) the figure was -17.6%; with `CCc1nnc(CN2CCC3(CC2)Nc2ccccc2NC3=O)o1`, 19.8%. The same measure for `Cc1nc(C(C)C)ncc1C(=O)N1CCCC(N2CCCC2)C1` (stereo unspecified): 6.69%; for `c1cc(C2CCN(c3ncnc4c3CCNCC4)CC2)ccn1`: -10.9%. With `CSc1ccccc1C(=O)N1CCN(C)C2(CCC(=O)N(C)CC2)C1` (stereo unspecified) the figure was -14.6%; with `Cc1nc(C2CCN(C[C@H](C)CO)CC2)cc(N2CCOCC2)n1`, -0.547%. Turning to `O=C(NCc1ccc2nonc2c1)C1CCN(C(=O)C2CCC2)CC1`, the cytotoxicity at 70.5 h is -6.22%. For the molecule `Cc1nn(C)cc1-c1ccnc(N2CCCN(CC(C)C)CC2)n1`, the cytotoxicity at 70.5 h was -6.83%.

In the case of `CN1CCc2[nH]cnc2C12CCN(Cc1ccc(S(C)(=O)=O)cc1)CC2`, the cytotoxicity at 70.5 h was -7.39%. The same measure for `c1ccc(-c2cccc(-c3ccn(CCN4CCCCC4)n3)c2)nc1`: 13.3%; for `COCC[C@]1(O)CCN(CC(=O)NCc2ccccc2C)C[C@H]1C`: -2.23%; for `NC(=O)C1CCCN(C(=O)c2ccc(-n3ccnc3)cc2)C1` (stereo unspecified): -5.88%. In the case of `CCC[C@H]1CN(Cc2cc(C)no2)C[C@@H]1NC(=O)C1(COC)CCC1`, the cytotoxicity at 70.5 h was -10%. With `Cc1nc2ccccc2n1Cc1cc(C(=O)N(C)C2CCOC2)n[nH]1` (stereo unspecified) the figure was -12.8%. Consider `CC(C)NC(=O)c1nc(Cn2c(C(F)(F)F)nc3ccccc32)no1`, for which the cytotoxicity at 70.5 h is 14.5%.

In the case of `CC(C)N1CC2(CCC1=O)CCN(C(=O)c1cccc(F)c1F)CC2`, the cytotoxicity at 70.5 h was -5.47%. As for `COCCNc1nc2c(c(N3CCn4nc(C)cc4C3)n1)CCNCC2`, the cytotoxicity at 70.5 h is -8.96%. Consider `CN(C)c1ncc2c(n1)CCCC2NC(=O)c1ccsc1` (stereo unspecified), for which the cytotoxicity at 70.5 h is -3.74%. Regarding `Cc1cc(C)nc(CNC(=O)C(c2cccnc2)N2CCOCC2)n1` (stereo unspecified), the cytotoxicity at 70.5 h is -6.63%. The same measure for `CN(Cc1ccc(OCC(=O)N2CCOCC2)cc1)S(C)(=O)=O`: 2.5%; for `CC(C)[C@H]1COC(=O)N1CC(=O)N1CCN(C(=O)c2ccco2)CC1`: 8.43%; for `CC(C)c1cc(C(=O)N2C[C@@H](C)[C@](O)(C3CC3)C2)[nH]n1`: -5.59%. The same measure for `COc1ccc(Cl)cc1C(=O)N1C[C@@H](NC(=O)N(C)C)[C@H](C(C)C)C1`: -10.5%; for `COC(=O)N1CCN(Cc2ccccc2Cl)CC1`: -1.89%; for `O=C(c1cc(Br)ccc1Cl)N1CCN(Cc2ccco2)CC1`: -4.63%. Consider `Cc1ccc(-c2c(C(=O)NC3CCN(C)CC3)csc2C)cc1`, for which the cytotoxicity at 70.5 h was -9.95%. With `CCc1ccc(C(=O)N2CCN(Cc3ccc(F)cc3)CC2)s1` the figure was 4.63%; with `CNc1cc(C)nc(N2CCC3(CC2)[C@H](O)C[C@@H]3OC)n1`, -2.45%; with `O=C(Cc1ccccc1F)NCCN1CCOCC1`, -6.95%. The same measure for `Cc1ccc(CN2CCN(C(=O)c3ccc(Br)o3)CC2)cc1`: 27.9%; for `COc1ccc(-c2nc(CN(C)Cc3nncn3C)c(C)o2)c(C)c1C`: 5.19%; for `COCCC1CCN([C@@H]2c3ccccc3C3(CCNCC3)[C@H]2O)CC1`: -3.9%. The same measure for `NCCc1n[nH]c(=O)n1-c1cccc2ccccc12`: -4.93%; for `O=C1OC2(CCNCC2)CN1CC(=O)N1CCCC1c1nccs1` (stereo unspecified): -7.02%; for `COCCn1ccnc1CN(Cc1ccccn1)CC(C)C`: -6.56%.

Take `O=C(c1cc(Cn2cnc3ccccc32)on1)N1CCOCC1`: the cytotoxicity at 70.5 h is -17.3%. On to `Cc1c(C(=O)NC2CCCC2)nnn1-c1ccccc1`, for which the cytotoxicity at 70.5 h is -8.58%. With `CCN(CCc1nc2cc(C)ccc2[nH]1)C(=O)[C@@H](N)Cc1c[nH]cn1` the figure was -11.4%. As for `CN(Cc1noc(-c2ccccc2)n1)C(=O)CSc1nnc(N)s1`, the cytotoxicity at 70.5 h stood at 14.3%. In the case of `COc1ccc2c(c1)C(C(=O)N(C)CCCc1nccn1C)CC(=O)N2` (stereo unspecified), the cytotoxicity at 70.5 h was found to be 5.74%.

With `COCCn1cncc1Cn1ncc2ccccc2c1=O`, the cytotoxicity at 70.5 h was -4.19%. With `CN(CC(=O)Nc1ccon1)S(=O)(=O)c1cc(Cl)ccc1Cl` the figure was 23.9%. The same measure for `Cc1nc(N2CCC(C(O)c3nccn3C)CC2)c2nc(C)oc2n1` (stereo unspecified): -5.83%; for `Cc1cccc(-n2c(C)cc(=O)[nH]c2=O)c1C`: -4.81%; for `O=C1NCCCC12CCN(c1nc3c(c(C(F)(F)F)n1)CCCC3)C2` (stereo unspecified): -6%. The same measure for `Cc1cc(NC(=O)CCn2cncn2)no1`: 5.52%. As to `COC(=O)NCC(=O)N(C)CC1Cc2ccccc2CN1C` (stereo unspecified), the cytotoxicity at 70.5 h was -2.82%.

As for `CCN1CCN(S(=O)(=O)c2cnc(NC(C)=O)s2)CC1`, the cytotoxicity at 70.5 h came out at 17.3%. On to `COc1cc(NC(=O)NCc2ccccn2)cc(OC)c1`, for which the cytotoxicity at 70.5 h was determined as 8.5%. As for `Cc1ccccc1CN(CCN(C)C)Cc1ccccc1C(=O)O`, the cytotoxicity at 70.5 h was -7.13%. On to `Cc1cc(NCCNc2ncccc2C)n2nc(C)cc2n1`, for which the cytotoxicity at 70.5 h was -15.2%. For `O=C(N1CCOCC1)N1CCCC1c1nc(-c2ccccn2)no1` (stereo unspecified), the cytotoxicity at 70.5 h is -8.93%. Consider `COc1cccc(CC2CN(C3CC(C)(C)NC(C)(C)C3)CCO2)c1` (stereo unspecified), for which the cytotoxicity at 70.5 h is 50.4%. The same measure for `CN(Cc1ccccc1Cl)C(=O)c1cc(CN2CCC(O)CC2)on1`: -17.3%. The same measure for `CCc1ccccc1OCCNCCc1c[nH]cn1`: 29.6%; for `COc1cccc(-c2ncc(CN3CCOCC(O)C3)s2)c1` (stereo unspecified): -6.59%; for `COc1ccc(OCCN2CCCN(Cc3noc(C)n3)CC2)cc1`: 30.5%.

Turning to `O=C(NCCn1ccnc1)c1ccn(-c2ccccc2)n1`, the cytotoxicity at 70.5 h was -1.21%.

(Values after ChEMBL document CHEMBL3507680, “University of Dundee, Gates Library screen for HepG2 cell viability”.)
